Experimental data from patent US20220055989A1, “CONDENSED PYRROLES AS NOVEL BROMODOMAIN INHIBITORS” (ALBERT LUDWING UNIVERSITÄT FREIBURG, priority 2018, published 2022).

Tests used:
BAZ2A = target: T1, BAZ2A (Homo sapiens, UniProt Q9UIF9); assay: BROMOscan Kd determination BAZ2A; assay type: binding
T1 construct: T7 phage strains displaying bromodomains were grown in parallel; made in house; host or cells: T7 phage grown in an E. coli host derived from the BL21 strain
Experimental: (§1) Bromodomain profiling was carried out on the basis of BROMOscan™. This platform accounted for the indirect determination of the dissociation constants between 19 bromodomains and the compound of formula (13), by binding competition against a reference immobilized ligand. Compounds that bind the bromodomain prevent its binding to the immobilized ligand thus reducing the amount of protein captured. […] Hits are identified by measuring the amount of bromodomain captured in test versus control samples. Bromodomain assays for Kd determination: T7 phage strains displaying bromodomains were grown in parallel in 24-well blocks in an E. coli host derived from the BL21 strain. E. coli were grown to log-phase and infected with T7 phage from a frozen stock (multiplicity of infection=0.4) and incubated with shaking at 32° C. until lysis (90-150 minutes). The lysates were centrifuged (5,000×g) and filtered (0.2 μm) to remove cell debris. […] Kds were determined using an 11-point 3-fold compound dilution series with one DMSO control point. […] The bromodomain concentration in the eluates was measured by qPCR. […] Most Kds were determined using a compound top concentration=10,000 nM. […] Binding Constants (Kds): Binding constants (Kds) were calculated with a standard dose-response curve using the Hill equation: The Hill Slope was set to −1. […]

BAZ2B [1] = target: T2, BAZ2B (Homo sapiens, UniProt Q9UIF8); assay: BROMOscan Kd determination BAZ2B; assay type: binding
T2 construct: T7 phage strains displaying bromodomains were grown in parallel; made in house; host or cells: T7 phage grown in an E. coli host derived from the BL21 strain
T2 sequence (Q9UIF8 2060-2164 limits assumed): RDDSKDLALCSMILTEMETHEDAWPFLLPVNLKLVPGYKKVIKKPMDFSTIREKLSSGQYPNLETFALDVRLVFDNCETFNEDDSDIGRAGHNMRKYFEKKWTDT
Experimental: as §1

BRPF3 = target: T3, BRPF3 (Homo sapiens, UniProt Q9ULD4); assay: BROMOscan Kd determination BRPF3; assay type: binding
T3 construct: T7 phage strains displaying bromodomains were grown; host or cells: T7 phage in E. coli derived from BL21
T3 sequence (Q9ULD4 589-693 limits assumed): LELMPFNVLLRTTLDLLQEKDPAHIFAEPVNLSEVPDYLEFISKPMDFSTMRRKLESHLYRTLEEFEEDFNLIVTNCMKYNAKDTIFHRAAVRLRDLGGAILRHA
Experimental: as §1

GCN5L2 = target: T4, GCN5L2 (Homo sapiens, UniProt Q92830); assay: BROMOscan Kd determination GCN5L2; assay type: binding
T4 construct: T7 phage strains displaying bromodomains were grown in parallel; host or cells: T7 phage grown in E. coli host derived from BL21
T4 sequence (Q92830 728-832 limits assumed): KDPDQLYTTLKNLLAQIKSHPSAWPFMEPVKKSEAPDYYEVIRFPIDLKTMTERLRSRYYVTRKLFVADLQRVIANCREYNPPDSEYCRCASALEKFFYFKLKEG
Experimental: as §1

PBRM1(2) = target: T5, PBRM1(2) (Homo sapiens, UniProt Q86U86); assay: BROMOscan Kd determination PBRM1(2); assay type: binding
T5 construct: FALZ, PBRM1-BD2, BPRM1-BDS, TAF1-BD2, TAF1L-BD2; host or cells: T7 phage grown in E. coli host derived from BL21
T5 sequence (Q86U86 177-287 limits assumed): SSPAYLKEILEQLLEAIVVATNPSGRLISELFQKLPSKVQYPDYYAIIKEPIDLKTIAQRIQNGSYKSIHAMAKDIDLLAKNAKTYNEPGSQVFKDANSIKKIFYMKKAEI
Experimental: as §1

SMARCA4 = target: T6, SMARCA4 (Homo sapiens, UniProt P51532); assay: BROMOscan Kd determination SMARCA4; assay type: binding
T6 construct: T7 phage strains displaying bromodomains were grown in parallel; host or cells: T7 phage grown in E. coli host derived from BL21
T6 sequence (P51532 1453-1564 limits assumed): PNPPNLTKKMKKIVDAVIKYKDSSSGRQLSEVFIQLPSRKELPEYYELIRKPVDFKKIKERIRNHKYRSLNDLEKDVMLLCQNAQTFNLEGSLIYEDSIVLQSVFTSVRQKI
Experimental: as §1

WRD9(2) = target: T7, WRD9(2) (Homo sapiens, UniProt Q9NSI6); assay: BROMOscan Kd determination WRD9(2); assay type: binding
T7 construct: T7 phage strains displaying bromodomains were grown in parallel; host or cells: T7 phage grown in E. coli host derived from BL21
T7 sequence (Q9NSI6 1313-1418 limits assumed): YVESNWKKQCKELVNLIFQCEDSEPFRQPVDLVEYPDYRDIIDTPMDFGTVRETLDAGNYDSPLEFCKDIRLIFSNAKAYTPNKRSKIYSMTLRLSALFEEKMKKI
Experimental: as §1

BAZ2B [2] = target: T2, BAZ2B; assay: Bromodomain assay % Ctrl determination BAZ2B; conditions: lower numbers indicate a stronger binding
Experimental: (§2) Compounds that bind the bromodomain prevent its binding to the immobilized ligand thus reducing the amount of protein captured. […] Hits are identified by measuring the amount of bromodomain captured in test versus control samples. Bromodomain assays for % Ctrl determination: T7 phage strains displaying bromodomains were grown in parallel in 24-well blocks in an E. coli host derived from the BL21 strain. E. coli were grown to log-phase and infected with T7 phage from a frozen stock (multiplicity of infection=0.4) and incubated with shaking at 32° C. until lysis (90-150 minutes). The lysates were centrifuged (5,000×g) and filtered (0.2 μm) to remove cell debris. […] The liganded beads were blocked with excess biotin and washed with blocking buffer (SeaBlock (Pierce), 1% BSA, 0.05% Tween 20, 1 mM DTT) to remove unbound ligand and to reduce non-specific phage binding. […] Test compounds were prepared as 1000× stocks in 100% DMSO and subsequently diluted 1:25 in monoethylene glycol (MEG). The compounds were then diluted directly into the assays such that the final concentrations of DMSO and MEG were 0.1% and 2.4%, respectively. All reactions were performed in polypropylene 384-well plates in a final volume of 0.02 ml. […] The bromodomain concentration in the eluates was measured by qPCR. […]

BRD3(2) = target: T8, BRD3(2) (Homo sapiens, UniProt Q15059); assay: Bromodomain assay % Ctrl determination BRD3(2); conditions: lower numbers indicate a stronger binding
T8 construct: T7 phage strains displaying bromodomains were grown in parallel; made in house; host or cells: T7 phage grown in an E. coli host derived from the BL21 strain
T8 sequence (Q15059 306-415 limits assumed): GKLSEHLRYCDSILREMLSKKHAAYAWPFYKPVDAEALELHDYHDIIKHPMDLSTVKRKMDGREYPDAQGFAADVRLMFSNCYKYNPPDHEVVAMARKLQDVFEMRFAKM
Experimental: as §2

BRD4(2) = target: T9, BRD4(2) (Homo sapiens, UniProt O60885); assay: Bromodomain assay % Ctrl determination BRD4(2); conditions: lower numbers indicate a stronger binding
T9 construct: T7 phage strains displaying bromodomains were grown; host or cells: T7 phage in E. coli derived from BL21
Experimental: as §2

BRD9 = target: T10, BRD9 (Homo sapiens, UniProt Q9H8M2); assay: Bromodomain assay % Ctrl determination BRD9; conditions: lower numbers indicate a stronger binding
T10 construct: T7 phage strains displaying bromodomains were grown; host or cells: T7 phage in E. coli derived from BL21
T10 sequence (Q9H8M2 136-240 limits assumed): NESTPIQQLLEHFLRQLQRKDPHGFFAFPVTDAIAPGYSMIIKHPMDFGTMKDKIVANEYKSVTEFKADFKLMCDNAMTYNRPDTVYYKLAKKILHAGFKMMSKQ
Experimental: as §2

BRDT(2) = target: T11, BRDT(2) (Homo sapiens, UniProt Q58F21); assay: Bromodomain assay % Ctrl determination BRDT(2); conditions: lower numbers indicate a stronger binding
T11 construct: T7 phage strains displaying bromodomains were grown; host or cells: T7 phage in E. coli derived from BL21
Experimental: as §2

BRPF1 = target: T12, BRPF1 (Homo sapiens, UniProt P55201); assay: Bromodomain assay % Ctrl determination BRPF1; conditions: lower numbers indicate a stronger binding
T12 construct: T7 phage strains displaying bromodomains were grown; host or cells: T7 phage in E. coli derived from BL21
T12 sequence (P55201 628-732 limits assumed): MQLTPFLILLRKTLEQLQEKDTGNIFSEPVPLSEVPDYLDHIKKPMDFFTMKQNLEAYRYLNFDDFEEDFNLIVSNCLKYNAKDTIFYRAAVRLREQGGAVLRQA
Experimental: as §2

FALZ = target: T13, FALZ (Homo sapiens, UniProt Q12830); assay: Bromodomain assay % Ctrl determination FALZ; conditions: lower numbers indicate a stronger binding
T13 construct: T7 phage strains displaying bromodomains were grown in parallel; host or cells: T7 phage grown in E. coli host derived from BL21
Experimental: as §2

PBRM1(5) = target: T14, PBRM1(5) (Homo sapiens, UniProt Q86U86); assay: Bromodomain assay % Ctrl determination PBRM1(5); conditions: lower numbers indicate a stronger binding
T14 construct: T7 phage strains displaying bromodomains were grown in parallel; host or cells: T7 phage grown in E. coli host derived from BL21
T14 sequence (Q86U86 653-763 limits assumed): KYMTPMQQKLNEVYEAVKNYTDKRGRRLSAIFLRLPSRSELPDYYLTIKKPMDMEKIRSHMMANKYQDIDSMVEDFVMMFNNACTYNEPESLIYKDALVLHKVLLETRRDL
Experimental: as §2

TAF1L(2) = target: T15, TAF1L(2) (Homo sapiens, UniProt Q8IZX4); assay: Bromodomain assay % Ctrl determination TAF1L(2); conditions: lower numbers indicate a stronger binding
T15 construct: FALZ, PBRM1-BD2, BPRM1-BDS, TAF1-BD2, TAF1L-BD2; host or cells: T7 phage grown in E. coli host derived from BL21
T15 sequence (Q8IZX4 1517-1626 limits assumed): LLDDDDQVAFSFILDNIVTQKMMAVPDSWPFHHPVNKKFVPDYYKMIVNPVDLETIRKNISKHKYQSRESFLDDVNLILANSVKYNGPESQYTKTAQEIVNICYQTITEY
Experimental: as §2

T1 sequence (Q9UIF9 1793-1897 limits assumed): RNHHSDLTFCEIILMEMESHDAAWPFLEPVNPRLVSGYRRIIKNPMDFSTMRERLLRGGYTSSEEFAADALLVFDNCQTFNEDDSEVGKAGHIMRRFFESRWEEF

| Kd (BAZ2A) | Kd (BAZ2B [1]) | Kd (BRPF3) | Kd (GCN5L2) | Kd (PBRM1(2)) | Kd (SMARCA4) | Kd (WRD9(2)) | % Ctrl @ 10 000 nM BAZ2B (BAZ2B [2]) | % Ctrl @ 10 000 nM BRD3(2) (BRD3(2)) | % Ctrl @ 10 000 nM BRD4(2) (BRD4(2)) | % Ctrl @ 10 000 nM BRD9 (BRD9) | % Ctrl @ 10 000 nM BRDT(2) (BRDT(2)) | % Ctrl @ 10 000 nM BRPF1 (BRPF1) | % Ctrl @ 10 000 nM FALZ (FALZ) | % Ctrl @ 10 000 nM PBRM1(5) (PBRM1(5)) | % Ctrl @ 10 000 nM TAF1L(2) (TAF1L(2)) | SMILES |
| --- | --- | --- | --- | --- | --- | --- | --- | --- | --- | --- | --- | --- | --- | --- | --- | --- |
| 1.9 µM | 1.8 µM | 6 µM | > 10 µM | 4.2 µM | > 10 µM | > 10 µM |  |  |  |  |  |  |  |  |  | Cc1[nH]c(-c2cc(N)ccc2Cl)c2c1C(=O)CCCC2 [Compound 23] |
|  |  |  |  |  |  |  | 6.8 % Ctrl | 0 % Ctrl | 0 % Ctrl | 0 % Ctrl | 0.65 % Ctrl | 0.15 % Ctrl | 6.8 % Ctrl | 90 % Ctrl | 40 % Ctrl | COc1ccc(S(=O)(=O)N2CCOCC2)cc1NC(=O)c1[nH]c(C)c2c1CCCCC2=O [Compound 13, N-(2-methoxy-5-(morpholinosulfonyl)phenyl)-3-methyl-4-oxo-2,4,5,6,7,8-hexahydrocyclohepta[c]pyrrole-1-carboxamide] |
